Earlier results, collected in patent US20060166941A1, “Treatment and/or prevention of non-viral epithelial damage” (Epistem Limited, priority 2003, published 2006).

Tested on: Na+/Pi cotransport across renal cortical brush border membrane
Settings: Hoppe et al. 1988; cited from earlier work

For `O=C(O)C(Cl)(Br)P(=O)(O)O` (stereo not drawn) [alpha-Cl-alpha-Br-phosphonoacetate], the “inhibitory activity relative to phosphonoformic acid” value is given as “threefold greater inhibitory activity than phosphonoformic acid”.
